Measurements: US8207402B2, “Nucleotide sequences encoding enzymes in biosynthesis of dihydroartemisinic acid” (National Research Council of Canada, priority 2006, dated 2012)

Assays:
recombinant AaALDH1 = molecular target: T1, recombinant AaALDH1 (Artemisia annua, UniProt C5I9X1); assay: Characterization of purified recombinant AaALDH1 (kinetic parameters, substrate specificity); type: biochemical; conditions: for substrate for the recombinant AaALDH1: optimum assay conditions, substrate concentration at 10 times the estimated Km; for Km / Vmax: purified recombinant AaALDH1, 50 mM Tris-HCl buffer, pH 8.5, means of three independent experiments
T1 construct: made in house; host or cells: E. coli BL21(DE3)
T1 sequence (C5I9X1 with tags, fused parts or gaps): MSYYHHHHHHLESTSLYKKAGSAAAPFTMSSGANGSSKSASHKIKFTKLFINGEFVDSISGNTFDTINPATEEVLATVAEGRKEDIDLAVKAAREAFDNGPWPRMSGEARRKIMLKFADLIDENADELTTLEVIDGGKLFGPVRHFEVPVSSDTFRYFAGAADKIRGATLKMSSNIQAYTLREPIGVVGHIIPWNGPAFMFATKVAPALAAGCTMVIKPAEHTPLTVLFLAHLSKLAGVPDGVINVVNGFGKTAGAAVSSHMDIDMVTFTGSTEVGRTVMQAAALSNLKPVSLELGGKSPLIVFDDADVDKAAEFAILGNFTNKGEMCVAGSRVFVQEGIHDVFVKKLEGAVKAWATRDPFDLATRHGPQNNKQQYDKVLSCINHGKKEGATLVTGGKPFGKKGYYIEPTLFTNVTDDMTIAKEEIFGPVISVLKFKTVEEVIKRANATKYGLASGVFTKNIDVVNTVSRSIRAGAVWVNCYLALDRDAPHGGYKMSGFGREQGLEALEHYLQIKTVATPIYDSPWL
Procedure: Purification of Recombinant AaALDH1
Cell-free extract of recombinant AaALDH1 was prepared as described above. The cell-free extract was centrifuged at 20,000 g at 4° C. for 15 minutes to remove any remaining insoluble materials before loading onto a His-Trap FF column (Amersham Bioscience, N.J.) equilibrated with binding buffer (20 mM sodium phosphate buffer containing 500 mM NaCl and 20 mM imidazole at pH 7.5). The column was washed with 5 column volume of binding buffer and the recombinant AaALDH1 eluted with elution buffer (20 mM sodium phosphate, 500 mM NaCl, pH 7.5) containing increasing concentration of imidazole in a step-wise fashion. The eluted fractions were concentrated and desalted in centrifugal filter devices (Amicon Ultra—15) (Millipore, Mass.) following manufacturer's protocol. The purity of the recombinant AaALDH1 was checked with SDS gel stained with Rapid Stain (Biosciences, St. Louis, Mo.).
Characterization of Purified Recombinant AaALDH1
The linearity of the assay with respect to time and protein concentration was first established and the operational saturation of substrate and cofactor determined. The pH optimum was determined by the standard assay in 50 mM buffer (sodium phosphate, Tris-HCl and CHES) from pH 6.0 to 10.0 at 0.5 unit interval containing 1 mM NADP and 1.5 micrograms of the purified recombinant AaALDH1. Kinetic parameters were determined in 50 mM Tris-HCl buffer, pH 8.5 by varying the concentration of the substrates. Kinetic constants were determined by non-linear regression analysis using GraphPad software (GraphPad Software Inc. San Diego, Calif.) and the results presented are the means of three independent experiments. Substrates specificity was determined at optimum reaction conditions with substrates concentration at 10 times the estimated Km value. Substrates tested include artemisinic aldehyde, (11R)-dihydroartemisinic aldehyde, artemisinic alcohol, dihydroartemisinic alcohol, octanal, nonanal, 2-phenyl propionaldehyde, 3-cyclohexyl propionaldehyde, 2-hexen-1-al, syringaldehyde.

[1] = molecular target: T2, recombinant His-tagged AaALDH1 (Artemisia annua, UniProt C5I9X1); assay: In vitro cell-free assay of recombinant His-tagged AaALDH1, GC/MS; type: biochemical; conditions: E. coli cell-free extract, 1 mM NADP, pH 8.5, 30 minutes at 30° C.
T2 construct: made in house; host or cells: E. coli BL21(DE3)
T2 sequence (C5I9X1 with tags, fused parts or gaps): as above
Procedure: (§1) The plasmid pKT032 or pKT041 was introduced into E. coli strain BL21(DE3) (Novagen) using heat shock at 42° C. The GUS gene (Invitrogen) was cloned into pDEST17 to replace the ccdB gene and the construct pDEST-GUS introduced into the E. coli strain BL21(DE3) was used as a control. Transformants were grown on Luria Broth (LB) and selected on ampicillin (100 μg/mL) at 37° C. for 24 hours. A single colony containing pKT032 or pKT041 was used to inoculate 5 mL of LB liquid medium with ampicillin (LBA) and grown at 37° C. overnight with shaking. The overnight culture was used to inoculate 250 mL of LBA liquid medium and grown at 37° C. with shaking to an OD600 of 0.6 per mL followed by induction with 1 mM IPTG and grown at 30° C. overnight with shaking. Cells were pelleted at 2,000 g at 4° C. for 10 minutes. The pelleted cells were resuspended in 6 mL of lysis buffer consisting of 50 mM sodium phosphate, pH 8.0, 0.1 M NaCl, 20 mM imidazole and 1 mM phenylmethylsufonyl fluoride (PMSF). Cells were lysed with lysozyme (0.2 mg/mL of cells) on ice for 30 minutes followed by sonication on ice with 30s pulse (5×). Protein concentration was determined by Bradford assay (Bio-Rad). The AaDBR1 protein was detected by silver stain on SDS gel and confirmed by Western Blot using Anti-His antibody (Invitrogen). The AaALDH1 protein was detected by Rapid Stain (Bioscience, St. Louis, Mo.) on SDS gel. […]

Plasmodium falciparum = conditions: more active than artesunate; cited from earlier work
[2] = test system: recombinant His-tagged AaDBR1; assay: In vitro cell-free assay of recombinant His-tagged AaDBR1, GC/MS; type: biochemical, Artemisia annua; conditions: E. coli cell-free extract, 1 mM NADPH, pH 7.5, 30 minutes at 30° C.
Procedure: as §1

SMILES | substrate for the recombinant AaALDH1 (recombinant AaALDH1) | product formation by AaALDH1 cell-free extract (GC/MS, FIG. 11) [1] | activity relative to artesunate (Plasmodium falciparum) | Km (recombinant AaALDH1) [µM] | Vmax (recombinant AaALDH1) [pkat/μg protein] | product formation by AaDBR1 cell-free extract (GC/MS, FIG. 10) [2]
CC1=C[C@H]2[C@@H](CC1)[C@H](C)CC[C@H]2[C@@H](C)C=O [(11R)-dihydroartemisinic aldehyde] | found to be a substrate | NADP-dependent formation of dihydroartemisinic acid | – | – | – | –
C[C@H]1[C@H](N2CCS(=O)(=O)CC2)O[C@@H]2O[C@@]3(C)CC[C@H]4[C@H](C)CC[C@@H]1[C@@]24OO3 [Artemisone] | – | – | 10-30 fold | – | – | –
C=C(C=O)[C@@H]1CC[C@@H](C)[C@@H]2CCC(C)=C[C@@H]21 [artemisinic aldehyde] | found to be a substrate | – | – | 2.62 | 28.6 | NADPH-dependent formation of (11S)-dihydroartemisinic aldehyde as the major product
CC1=C[C@H]2[C@@H](CC1)[C@H](C)CC[C@H]2[C@@H](C)C(=O)O [dihydroartemisinic acid] | – | – | – | 8.79 | 143.8 | –
